# Assay results taken from patent US20260199213A1, “PEPTIDE HAVING ACTIVITY OF IMPROVING STATE OF SKIN, AND USE THEREOF” (CAREGEN CO., LTD., priority 2022, published 2026).
# Legend:
# Assay type in all cases: cell-based
# [1] = test system: reactive oxygen species in HaCaT cells; test: Reactive oxygen species increased by ultraviolet rays in HaCaT cells (DCF-DA, flow cytometry)
# Protocol: In this example, the aim was to confirm the effect of the peptide according to an embodiment on the antioxidant effect in damaged skin, by evaluating the change in the level of reactive oxygen species in skin cells increased by ultraviolet irradiation.
# Specifically, NIH3T3 cells or HaCaT cells were seeded in a 6-well plate at a density of 5×10^5 cells/well and cultured for 24 hours. Next, the cells were washed once with serum-free DMEM media, and 10 μM, 50 μM or 1000 μM of the peptide consisting of the amino acid sequence of SEQ ID NO: 1 was dispensed into 1 mL of the serum-free media, and cultured in a CO2 incubator at 37° C. for 1 hour. Next, the above culture was transferred to an e-tube, mixed with 1 ml of PBS, and dispensed into a well plate. Next, using a UV irradiator (VILBER LOURMAT, Cat No.: 3102-BSU, France), 6 J/cm^2 ultraviolet rays were irradiated to NIH3T3 cells, and 15 mJ/cm^2 ultraviolet rays were irradiated to HaCaT cells. Next, the PBS in the well plate was removed, 900 μL of the culture medium in which the peptides were dispensed was added, and the plate was cultured in a CO2 incubator at 37° C. for 24 hours. The culture was then treated with DCFG-DA (2′,7′-dichlorofluorescin diacetate), wrapped in foil, and cultured in a CO2 incubator at 37° C. for 30 minutes. Next, the culture was washed twice with PBS and treated with 500 μL of 1× trypsin/EDTA to acquired cells, which were then centrifuged. After washing the centrifuged cells with PBS, FL1 fluorescence values were measured through flow cytometry (FACS, BD, USA). […]
# In this example, the aim was to compare in more detail, the effect of peptides according to an embodiment on the antioxidant effect in damaged skin cells. To this end, the peptide consisting of the amino acid sequence of SEQ ID NO: 2, 3, or 4 having a sequence similar to the peptide according to an embodiment was set as a comparison group, and the level of reactive oxygen species in skin cells increased by ultraviolet irradiation of HaCaT cells was evaluated and compared in the same manner as in Example 4-1. […]
# elastin = test: Elastin expression by RT-PCR in NIH3T3 cells
# Protocol: (§1) In this example, the aim was to confirm the effect of the peptide according to an example on improving endogenous skin aging, including improvement of wrinkles and enhancement of elasticity, etc., by evaluating the expression levels of collagen type 1 (Col1a1), fibronectin, elastin, and hyaluronic acid, which are known components of the dermis.
# (§2) Specifically, NIH3T3 cells were seeded in a 6-well plate at a density of 3×10^5 cells/well and cultured for 24 hours. Next, the cells were washed once with serum-free DMEM media, and 10 μM, 50 μM or 1000 μM of a peptide consisting of an amino acid sequence of SEQ ID NO: 1 was dispensed into 1 mL of the serum-free media, and cultured in a CO2 incubator at 37° C. for 24 hours. Next, the culture was washed twice with PBS, and RNA was isolated from the culture using easy blue (iNtRON, Cat. No.: 17061, Korea). Next, using an RT kit (Enzynomics, Cat. NO.: RT200, Korea), the isolated RNA was reverse transcribed to synthesize the respective cDNA. Next, using the synthesized 1 ug cDNA, primers for Colla1, fibronectin, or elastin, and a PCR kit (Enzynomics, Cat. No.: P581T, Korea), polymerase chain reaction (PCR) was performed. Meanwhile, in this example, an untreated group was used as a control group, and a group to which TGF-31 was added was used as a positive control group, the nucleotide sequences of the primers used in this example are shown in Table 2 below.
# In this example, the aim was to more specifically compare the effects of peptides according to an embodiment on improving intrinsic skin aging. To this end, a peptide consisting of an amino acid sequence of SEQ ID NO: 2, 3, or 4 having a sequence similar to a peptide according to an embodiment was set as a comparison group, and the expression levels of fibronectin and elastin were evaluated and compared in the same manner as in Example 2-1. […]
# hyaluronic acid = test: Hyaluronic acid level by HA ELISA in HaCaT cells; settings: 10 μM, 50 μM or 1000 μM peptide, 72 hours
# Protocol: (§3) Additionally, to evaluate the expression levels of procollagen I alpha and hyaluronic acid at the protein level, NIH3T3 cells or HaCaT cells were seeded at a density of 1×10^4 cells/well in 24-well plates and then cultured for 24 hours. Next, the cells were washed once with serum-free DMEM media, and 10 μM, 50 μM or 1000 μM of the peptide consisting of the amino acid sequence of SEQ ID NO: 1 was dispensed into 2 mL of the serum-free media, and cultured in a CO2 incubator at 37° C. for 72 hours. Next, the culture was centrifuged to settle the suspended matter, and the supernatant was transferred to an e-tube. Next, Collagen ELISA (abcam, Cat No.: ab210579, UK) and HA ELISA (ECHELON biosciences, Cat No.: K-1200, USA) were performed on the centrifuged culture. Meanwhile, in this example, an untreated group was used as the control group, and a group to which TGF-β1 or EGF was added was used as the positive control group.
# procollagen I alpha = test: Procollagen I alpha protein level by Collagen ELISA in NIH3T3 cells; settings: 10 μM, 50 μM or 1000 μM peptide, 72 hours
# Protocol: as §3
# Col1a1 = Col1a1 expression by RT-PCR in NIH3T3 cells; settings: 10 μM, 50 μM or 1000 μM peptide, 24 hours, vs untreated group
# Protocol: as §1
# as §2, with “Meanwhile, in this example, an untreated group was used as a control group, and a group to which TGF-31 was added was used as a positive control group, the nucleotide sequences of the primers used in this example are shown in Table 2 below.” left out
substance,measurement,setting,value
GPRGDP [SEQ ID NO: 1],reactive oxygen species reducing effect compared to the comparison group,"[1]; HaCaT cells, vs peptides of SEQ ID NO: 2, 3, or 4 (50 μM, 100 μM)",superior
same,level of reactive oxygen species increased by ultraviolet irradiation,"[1]; keratinocytes (HaCaT), 15 mJ/cm^2 UV, 10 μM, 50 μM or 1000 μM peptide, 24 hours",reduced
same,level of reactive oxygen species increased by ultraviolet irradiation (Example 4-2),"[1]; keratinocytes (HaCaT), comparison experiment, FIG. 11",reduced
same,expression of elastin,"elastin; 10 μM, 50 μM or 1000 μM peptide, 24 hours, PCR, vs untreated group",increased
same,expression of elastin (Example 2-2),"elastin; comparison experiment, FIG. 5 and FIG. 6",increased
same,elastin expression effect compared to the comparison group,"elastin; vs peptides of SEQ ID NO: 2, 3, or 4 (50 μM, 100 μM)",superior
same,expression of hyaluronic acid at the protein level,hyaluronic acid,increased
same,expression of procollagen I alpha at the protein level,procollagen I alpha,increased
same,expression of Col1a1,Col1a1,increased
